Measured values as given in ChEMBL document CHEMBL1144925, “Binding structures and potencies of oxidosqualene cyclase inhibitors with the homologous squalene-hopene cyclase” (J Med Chem, 2003).

Experiments:
Lanosterol synthase = target: T1, Lanosterol synthase (Homo sapiens, UniProt P48449); test: Inhibitory activity against Oxidosqualene-lanosterol cyclase from human liver microsomes
T1 sequence (P48449 whole entry): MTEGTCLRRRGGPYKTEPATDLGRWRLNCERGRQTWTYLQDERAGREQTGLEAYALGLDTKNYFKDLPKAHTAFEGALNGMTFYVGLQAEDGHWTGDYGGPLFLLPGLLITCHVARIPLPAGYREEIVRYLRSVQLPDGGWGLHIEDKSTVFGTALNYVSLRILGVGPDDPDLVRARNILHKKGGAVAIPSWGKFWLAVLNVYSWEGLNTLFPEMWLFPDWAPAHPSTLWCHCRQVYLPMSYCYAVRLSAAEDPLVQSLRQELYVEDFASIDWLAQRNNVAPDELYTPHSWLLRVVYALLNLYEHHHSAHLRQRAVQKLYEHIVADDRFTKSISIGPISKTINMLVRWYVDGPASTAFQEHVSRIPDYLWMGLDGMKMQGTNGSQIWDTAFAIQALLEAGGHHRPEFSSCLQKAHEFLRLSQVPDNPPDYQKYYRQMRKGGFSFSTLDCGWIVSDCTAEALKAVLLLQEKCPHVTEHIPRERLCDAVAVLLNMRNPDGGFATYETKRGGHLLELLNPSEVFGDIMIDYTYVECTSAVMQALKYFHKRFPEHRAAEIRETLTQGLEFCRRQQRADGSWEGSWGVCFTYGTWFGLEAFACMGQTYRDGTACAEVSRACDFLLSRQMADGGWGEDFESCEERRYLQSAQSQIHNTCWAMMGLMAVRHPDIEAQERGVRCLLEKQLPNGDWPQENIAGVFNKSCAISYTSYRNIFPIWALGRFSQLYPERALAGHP

Squalene--hopene cyclase = target: T2, Squalene--hopene cyclase (Alicyclobacillus acidocaldarius subsp. acidocaldarius (strain ATCC27009 / DSM 446 / 104-1A) (Bacillus acidocaldarius), UniProt P33247); test: Inhibitory activity against squalene hopene cyclase from Alicyclobacillus acidocaldarius
T2 sequence (P33247 whole entry): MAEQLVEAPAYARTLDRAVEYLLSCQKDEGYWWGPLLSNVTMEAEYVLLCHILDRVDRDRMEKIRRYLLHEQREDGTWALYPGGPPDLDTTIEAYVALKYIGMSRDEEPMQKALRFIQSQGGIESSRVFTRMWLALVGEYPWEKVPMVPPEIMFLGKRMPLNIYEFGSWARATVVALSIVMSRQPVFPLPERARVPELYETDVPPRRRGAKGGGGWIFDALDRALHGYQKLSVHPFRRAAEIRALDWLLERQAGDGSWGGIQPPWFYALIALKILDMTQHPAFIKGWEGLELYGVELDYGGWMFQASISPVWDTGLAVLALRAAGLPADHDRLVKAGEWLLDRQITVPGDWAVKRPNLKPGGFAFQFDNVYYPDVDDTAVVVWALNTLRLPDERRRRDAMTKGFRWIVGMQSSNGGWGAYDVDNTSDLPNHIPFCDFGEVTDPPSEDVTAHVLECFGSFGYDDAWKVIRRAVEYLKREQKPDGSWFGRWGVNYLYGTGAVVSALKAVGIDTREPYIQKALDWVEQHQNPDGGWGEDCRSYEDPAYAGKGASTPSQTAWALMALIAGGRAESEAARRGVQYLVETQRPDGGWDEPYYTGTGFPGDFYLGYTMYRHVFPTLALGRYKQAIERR

Row | Compound | IC50 (Lanosterol synthase) [nM] | IC50 (Squalene--hopene cyclase) [nM]
1 | C=CCN(C)CCCCCCOc1ccc2c(C)nn(C)c2c1 | 240 | 332
2 | C=CCN(C)CCCCCCOc1ccc2c(-c3ccc(Br)cc3)nn(C)c2c1 | 19.6 | –
3 | CN(C(=O)Oc1ccc(Cl)cc1)[C@H]1CC[C@H](c2ccc(CN3CCCCC3)cc2)CC1 | 11.3 | –
4 | C=CCN(C)CCCCCCOC1CCN(C(=O)c2ccc(F)cc2)CC1 | 71 | 1200
5 | C=CCN(C)CCCCCCOc1ccc2c(-c3ccc(Br)cc3)nsc2c1 | 2.9 | –
6 | C=CCN(C)CCCCCCOc1ccc(-c2nsc3cc(Br)ccc23)cc1 | 1900 | –
7 | C=CCN(C)CCCCCCOc1ccc2c(-c3ccc(Br)cc3)coc2c1 | 610 | –
8 | CN(C(=O)Oc1ccc(Cl)cc1)[C@H]1CC[C@H](c2ccc(C[N+]3([O-])CCCCC3)cc2)CC1 | 640 | 123
9 | C=CCN(C)C/C=C/COc1ccc(-c2nsc3cc(Br)ccc23)cc1 | 1860 | 130
10 | O=C(c1ccc(Cl)cc1)N1CCC(=Cc2ccc(C3=NCCO3)cc2)CC1 | 36 | 2800
11 | C=CCN(C)CCCCCCOc1ccc2c(-c3ccc(Br)cc3)n[nH]c2c1 | 39 | –

Further lines, results first:

Row | IC50 (Lanosterol synthase) [nM] | IC50 (Squalene--hopene cyclase) [nM] | Compound
12 | 380 | 75 | C=CCN(C)CCCCCCOc1ccc2c(-c3ccc(Br)cc3)noc2c1
13 | 500 | – | C=CCN(C)C/C=C/COc1ccc2c(-c3ccc(Br)cc3)coc2c1
14 | 4.1 | 172 | C=CCN(C)CCCCCCOc1ccc2c(c1)CON=C2c1ccc(Br)cc1
15 | 3.5 | – | C=CCN(C)CCCCCCOc1ccc2c(-c3ccc(Br)cc3)nccc2c1
16 | 439 | 50 | CN(C[C@H]1C[C@@H]1COc1ccc(C(=O)c2ccc(Br)cc2)c(F)c1)C1CC1
17 | 5.4 | 96 | C=CCN(C)CCCCCCOc1ccc(C(=O)c2ccc(Br)cc2)cc1
18 | 223 | – | C=CCN(C[C@H]1C[C@@H]1COc1ccc(C(=O)c2ccc(Br)cc2)cc1)C1CC1
19 | 48 | 760 | CN(CCCCCCOC1CCN(C(=O)c2ccc(F)cc2)CC1)C1CC1
20 | 13.5 | 75 | C=CCN(C)C/C=C/COc1ccc2c(-c3ccc(Br)cc3)csc2c1
21 | 98 | 38 | CN(CCCCCCOc1ccc(C(=O)c2ccc(Br)cc2)c(F)c1)C1CC1
22 | 16 | – | C=CCN(C)Cc1ccc(-c2ccc(C(=O)c3ccc(Br)cc3)cc2)cc1
23 | 29 | 49 | C=CCN(C)C/C=C/COc1ccc2c(-c3ccc(Br)cc3)noc2c1
24 | 3 | 40 | C=CCN(C)C/C=C/COc1ccc(C(=O)c2ccc(Br)cc2)cc1
25 | 22 | 62 | CN(C[C@H]1C[C@@H]1COc1ccc(C(=O)c2ccc(Br)cc2)cc1)C1CC1
